Legend:
[1] = target: T1, Angiotensin II receptor (Oryctolagus cuniculus, UniProt P34976); assay: AII receptor antagonistic activity: inhibition of angiotensin II induced contraction of isolated rabbit thoracic aorta; format: cell-based; details: isolated rabbit thoracic aorta contracted by angiotensin II; Van Rossum method; values shown in parenthesis
T1 construct: Rabbit thoracic aorta is isolated, contracted by angiotensin II; from tissue; host or cells: rabbit thoracic aorta
T1 sequence (P34976 1-359): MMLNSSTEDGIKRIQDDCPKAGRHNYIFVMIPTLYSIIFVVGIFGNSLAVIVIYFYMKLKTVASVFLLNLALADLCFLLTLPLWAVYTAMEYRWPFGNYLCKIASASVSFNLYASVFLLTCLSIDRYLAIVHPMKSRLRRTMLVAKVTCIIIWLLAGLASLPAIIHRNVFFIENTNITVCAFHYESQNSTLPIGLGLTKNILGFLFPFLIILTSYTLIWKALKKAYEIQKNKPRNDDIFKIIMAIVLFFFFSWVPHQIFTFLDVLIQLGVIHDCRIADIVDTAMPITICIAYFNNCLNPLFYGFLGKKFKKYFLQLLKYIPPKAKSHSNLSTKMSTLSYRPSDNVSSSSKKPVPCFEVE
Experimental: [AII receptor antagonistic activity]
Angiotensin II receptor activity experiments are carried out according to P. C. Wong et al. (Hypertension 15, 823 (1990)).
Rabbit thoracic aorta is isolated, contracted by angiotensin II. The inhibition of contraction by the compound of formula (1) is expressed as pA2 from dose-response curve (Schild, Brit. J. Pharmacol. 14, 48 (1959)) or expressed as pD2 ' according to the method of J. M. Van Rossum (Arch. Intern. Pharmacodyn., 143, 229 (1963)).

[2] = test system: pressor responses to AII; assay: Inhibition of AII induced blood pressure increase in rats; format: in vivo; details: Rattus norvegicus, po, test compound 0.3 mg/kg orally, AII 30 ng/kg i.v., pressor responses measured at set times
Experimental: [Inhibition of All induced Blood Pressure Increase]
Carotid artery and left femoral vein in rats were cannulated. Next day, the carotid catheter was connected to a pressure transducer for monitoring arterial blood pressure. After the measurement of AII (30 ng/kg, i.v.) pressor responses, test compounds (0.3 mg/kg) were administered orally.
Thereafter, the pressor responses to AII at set times were measured and the inhibition percent was calculated according to the comparison of the pressor responses.

pD2' [1]: 8.18
SMILES: CCCc1nc2c(n1Cc1ccc(-c3ccccc3-c3nnn[nH]3)cc1)/C(=C/C(=O)OC(C)OC(=O)OC(C)C)CCCC2 (centres unmarked) [Compound 29, 2-Propyl-8-(1-isopropoxycarbonyloxy)ethoxycarbonylmethylidene-1-[(2'-(1H-tetrazole-5-yl)biphenyl-4-yl)methyl]-4,5,6,7-tetrahydro-cycloheptimidazole]
inhibition in vivo at 0.3 mg/kg [2]: ≥ 70%

From US5527815A, “Carboxymethylidenecycloheptimidazole derivatives, method of manufacturing the same and therapeutic agents containing these compounds” (Kotobuki Seiyaku Co., Ltd., priority 1993, dated 1996)
